Legend:
[1] = Fluorescence quantum yield and lifetime in benzonitrile (PhCN); assay type: physicochemical
Experimental: (B) Fluorescence decay curve of 4 observed at 787 nm. Excitation wavelength: 651 nm.
Instrumentation: Measurement of fluorescence quantum yields were carried out on a Hamamatsu C9920-0X(PMA-12) U6039-05 fluorescence spectrofluorometer. Femtosecond laser flash photolysis was conducted using a Clark-MXR 2010 laser system and an optical detection system provided by Ultrafast Systems (Helios). The source for the pump and probe pulses were derived from the fundamental output of Clark laser system (775 nm, 1 mJ pulse-1 and fwhm=150 fs) at a repetition rate of 1 kHz. A second harmonic generator introduced in the path of the laser beam provided […] laser pulses for excitation. A 95% of the fundamental output of the laser was used to generate the second harmonic, while 5% of the deflected output was used for white light generation. Prior to generating the probe continuum, the laser pulse was fed to a delay line that provided an experimental time window of 1.6 ns with a maximum step resolution of 7 fs. The pump beam was attenuated at 5 μJ pulse-1 with a spot size of 2 mm diameter at the sample cell where it was merged with the white probe pulse in a close angle (<10°). […] The photodynamics were monitored by continuous exposure to a xenon lamp for visible region and halogen lamp for near-IR region as a probe light and a photomultiplier tube (Hamamatsu 2949) as a detector.

[2] = Photobleaching in 17% bovine calf serum; assay type: physicochemical; details: 17% BCS, dye laser 75 mW/cm^2, 785 nm for 4
Experimental: Photobleaching was performed in quartz cuvettes on a 5 μM solution of 2 and a 25 μM solution of 4 in 17% BCS. The higher molarity was chosen to approximate the absorbance of 2 at 5 μM. A dye laser was used at dose rate 75 mW/cm^2, and excitation wavelength for 2 was 660 nm and for 4 was 785 nm.
In photodynamic therapy, photobleaching is the photochemical alteration of a chromophore or a fluorophore molecule such that could either permanently is unable to fluoresce or alter its fluorescence characteristics. This is caused by cleaving of the covalent bonds or non-specific reaction between the reactive oxygen species (e.g., singlet oxygen) and the molecule. These […] species formed by conversion of the molecular oxygen present in tumor to singlet oxygen by exposing the photosensitizer with light at an appropriate wavelength. The rate of photobleaching of the PS should depend (a) availability of oxygen, (b) photostability of PS and finally (c) the singlet oxygen (or other reactive oxygen species) producing ability of the PS.
To investigate the photobleaching characteristics of the photosensitizers, compounds 2 and 4 in equimolar concentrations (5 μM) were taken in quartz cuvettes in 17% bovine calf serum. Dye lasers with appropriate wavelength (2: 660 nm and 4: 785 nm) were used at a dose rate of 75 mW/cm^2. Both the compounds in formulated forms were irradiated with light and the absorption spectra at their long wavelength absorptions were measured with time. The decay in absorbance was plotted against the time of light exposure.

[3] = system: Colon26 tumors; test: In vivo whole body tumor fluorescence imaging (IVIS Spectrum); set-up: species or system BALB/c mice; details: non-radioactive analogs, i.v., post-injection
Experimental: Before evaluating in vivo PDT efficacy of PS 4 by exposing the tumors with light, the time point for optimal tumor uptake of PS was determined by whole body fluorescence imaging of tumored mice at various time points after injecting the PS.
The multi-spectral imaging system, IVIS Spectrum (Perkin-Elmer) along with Living Image (image acquisition and analysis software) was used. IVIS Spectrum has the capability to use either trans-illumination (from the bottom) or epi-illumination (from the top) to illuminate in vivo fluorescent sources. […] Regions of interest (ROI) were defined for areas of compound accumulation (tumor, liver, skin) and total and average signal within the region were recorded. Fluorescent intensity is expressed as the total radiant efficiency ([p/s]/[μW/cm^2]. Results are expressed as mean total radiant efficiency of three mice±SD.

[4] = system: Colon26 tumors; test: In vivo PDT efficacy; set-up: species or system BALB/c mice
Experimental: Tumors were exposed to light (135 J/cm^2, 75 mW/cm^2) at 24 h (hour) postinjection (optimal time for tumor uptake for both the PSs).
For determining the in vivo imaging and therapeutic potential of 2, BALB/c mice (5-10 mice/group) bearing Colon26 tumors were used. In brief, 1×10^6 Colon26 cells were injected in mice subcutaneously. The tumors were left to grow for 1 week until they achieve the desired size (3-5 mm) for treatment. The photosensitizer was injected intravenously following the animal protocol approved by RPCI IACUC committee. Irradiance occurred 24 hours after i. v. injection; light dose was 135 J/cm^2 at a dose rate of 75 mW/cm^2 using the near-IR wavelengths of interest: 665 nm or 789 nm.
Two axes of the tumor (L, longest axis; W, shortest axis) were measured in millimeters with the aid of a Vernier caliper. Tumor weight (mg) was estimated as a formula: tumor weight=1/2 (L×W2). Tumor measurements were taken daily for the first 10 days and at least three tine a week for the first 4 weeks of post therapy and twice a week thereafter. Endpoints were 400 mm^3 tumor volume or 60 days.

Substance: methyl 3-[1′-(m-iodobenzyloxy)ethyl]-3-devinyl-13^3-keto-13^2-methoxycyclohexene [Compound 4]
- fluorescence lifetime ([1]; PhCN, decay observed at 787 nm, excitation 651 nm): 0.81 ns
- Fluorescence quantum yield Φ ([1]; benzonitrile (PhCN), excited at 532 nm): 0.013
- photobleaching (in words) [2]: negligible photobleaching
- time of optimal uptake in tumor (fluorescence imaging) [3]: 24 h
- PDT efficacy compared with 2 (in words) ([4]; BALB/c mice bearing Colon26 tumors): far lower than that of 2
- tumor cure after PDT ([4]; dose 1 μmol/kg, light 135 J/cm^2, 75 mW/cm^2 at 24 h postinjection, 5 mice/group): no tumor cure
- long-term PDT efficacy at higher drug doses (in words) ([4]; higher drug doses than 1 μmol/kg, light 135 J/cm^2, 75 mW/cm^2 at 24 h): no significant long-term PDT efficacy

From patent US20220194952A1, “TETRAPYRROLIC CONJUGATES AND USES THEREOF FOR IMAGING” (Health Research, Inc., priority 2019, published 2022)
